Where two headings read alike, the source gives them in different places.
Legend:
[1] = test system: Human breast cancer cell line T-47D; assay: Caspase cascade activation assay (N-(Ac-DEVD)-N'-ethoxycarbonyl-R110 fluorogenic substrate) in T-47D cells; assay type: cell-based; details: for Caspase activity (Ratio) T-47D: 24 h incubation with compound, ratio of net RFU (T=3 h) of test compound to control
Experimental: (§1) Human breast cancer cell lines T-47D and ZR-75-1 were grown according to media component mixtures designated by American Type Culture Collection +10% FCS (Invitrogen Corporation), in a 5% CO2-95% humidity incubator at 37° C. T-47D and ZR-75-1 cells were maintained at a cell density between 30 and 80% confluency at a cell density of 0.1 to 0.6×10^6 cells/ml. Cells were harvested at 600×g and resuspended at 0.65×10^6 cells/mL into appropriate media +10% FCS. An aliquot of 45 μl of cells was added to a well of a 96-well microtiter plate containing 5 μl of a 10% DMSO in RPMI-1640 media solution containing 0.16 to 10 μM of 2-amino-3-cyano-4-(3-bromo-4,5-dimethoxyphenyl)-4H-indolo[7,6-b]pyran (Example 42) or other test compound (0.016 to 1 μM final). An aliquot of 45 μl of cells was added to a well of a 96-well microtiter plate containing 5 μl of a 10% DMSO in RPMI-1640 media solution without test compound as the control sample. The samples were mixed by agitation and then incubated at 37° C. for 24 h in a 5% CO2-95% humidity incubator. After incubation, the samples were removed from the incubator and 50 μl of a solution containing 20 μM of N-(Ac-DEVD)-N′-ethoxycarbonyl-R110 (SEQ ID NO:1) fluorogenic substrate (Cytovia, Inc.; WO99/18856), 20% sucrose (Sigma), 20 mM DTT (Sigma), 200 mM NaCl (Sigma), 40 mM Na PIPES buffer pH 7.2 (Sigma), and 500 μg/ml lysolecithin (Calbiochem) was added. The samples were mixed by agitation and incubated at room temperature. Using a fluorescent plate reader (Model 1420 Wallac Instruments), an initial reading (T=0) was made approximately 1-2 min after addition of the substrate solution, employing excitation at 485 nm and emission at 530 nm, to determine the background fluorescence of the control sample. After the 3 h incubation, the samples were read for fluorescence as above (T=3 h).
(§2) The Relative Fluorescence Unit values (RFU) were used to calculate the sample readings as follows: RFU(T=3h)−Control RFU(T=0)=Net RFU(T=3h)
(§3) The activity of caspase cascade activation was determined by the ratio of the net RFU value for 2-amino-3-cyano-4-(3-bromo-4,5-dimethoxyphenyl)-4H-indolo[7,6-b]pyran or other test compound to that of control samples. The EC50 (nM) was determined by a sigmoidal dose-response calculation (Prism 2.0, GraphPad Software Inc.).

[2] = test system: Human breast cancer cell line ZR-75-1; assay: Caspase cascade activation assay (N-(Ac-DEVD)-N'-ethoxycarbonyl-R110 fluorogenic substrate) in ZR-75-1 cells; assay type: cell-based; details: for Caspase activity (Ratio) ZR-75-1: 24 h incubation with compound, ratio of net RFU (T=3 h) of test compound to control
Experimental: as §1, §2, §3

[3] = Homo sapiens, T47D, 24 h, 24 h incubation, sigmoidal dose-response, read-out: Caspase potency EC50 (nM) T-47D
[4] = Homo sapiens, ZR-75-1, 24 h, ZR-75-1 cells, 24 h incubation, sigmoidal dose-response, read-out: Caspase potency EC50 (nM) ZR-75-1
[5] = ZR-75-1 cells, additional compounds, Table II
[6] = Homo sapiens, T47D, additional compounds, Table II, read-out: Caspase potency EC50 (nM) T-47D, Table II
[7] = Homo sapiens, ZR-75-1, ZR-75-1 cells, additional compounds, Table II, read-out: Caspase potency EC50 (nM) ZR-75-1, Table II
[8] = 24 h incubation, sigmoidal dose-response, read-out: Caspase potency EC50 (nM) T-47D
[9] = ZR-75-1 cells, 24 h incubation, sigmoidal dose-response, read-out: Caspase potency EC50 (nM) ZR-75-1

Compound | Caspase activity (Ratio) T-47D [1] | EC50 [1, 3] [nM] | EC50 [2, 4] [nM] | Caspase activity (Ratio) ZR-75-1 ([2]; ZR-75-1 cells) | further results
CNC1=C(C#N)C(c2cc(Br)c(OC)c(OC)c2)c2ccc3ccn(C)c3c2O1 (centres unmarked) [Example 76, 3-Cyano-4-(3-bromo-4,5-dimethoxyphenyl)-2-methylamino-9-methyl-4H-pyrrolo[3,2-h]chromene] | 2.0 | > 10000 | 4100 | 2.3 | 
CCC(C)C(=O)Nc1ccc2c(c1)OC(N)=C(C#N)C2c1cc(Br)c(OC)c(OC)c1 (centres unmarked) [2-Amino-3-cyano-7-(2-methylbutanoylamino)-4-(3-bromo-4,5-dimethoxyphenyl)-4H-chromene] |  |  |  |  | Caspase activity (Ratio) T-47D, Table II ([1]; additional compounds, Table II): Inactive; Caspase potency EC50 (nM) T-47D, Table II ([1]; additional compounds, Table II): Inactive; Caspase activity (Ratio) ZR-75-1, Table II [2, 5]: Inactive; Caspase potency EC50 (nM) ZR-75-1, Table II [2, 5]: Inactive
CCNc1ccc2c(c1)OC(N)=C(C#N)C2c1cccc(C#N)c1 (centres unmarked) [Example 16, 2-Amino-3-cyano-7-ethylamino-4-(3-cyanophenyl)-4H-chromene] | 7 | 11 | 6 | 6.7 | 
CCNc1ccc2c(c1)OC(N)=C(C#N)C2c1cccc(Br)c1 (centres unmarked) [Example 7, 2-Amino-3-cyano-7-ethylamino-4-(3-bromophenyl)-4H-chromene] | 5.4 | 108 | 53 | 10.7 | 
N#CC1=C(N)OC2C3=CC=NC3=CC=C2C1c1cncc(Br)c1 (centres unmarked) [Example 36, 2-Amino-3-cyano-4-(5-bromo-3-pyridyl)-4H-indolo[4,5-b]pyran] | 5.9 | 10 | 3 | 2.9 | 
COc1cc(C2C(C#N)=C(N)Oc3cc(O)ccc32)cc(OC)c1OC (centres unmarked) [2-Amino-3-cyano-7-hydroxy-4-(3,4,5-trimethoxyphenyl)-4H-chromene] |  |  |  |  | EC50 [1, 6]: 456 nM; Caspase activity (Ratio) T-47D, Table II ([1]; additional compounds, Table II): 7.3; EC50 [2, 7]: 208 nM; Caspase activity (Ratio) ZR-75-1, Table II [2, 5]: 10.3
N#CC1=C(N)OC2C3=CC=NC3=CC=C2C1c1cnc2ccccc2n1 (centres unmarked) [Example 59, 2-Amino-3-cyano-4-(quinoxalin-2-yl)-4H-indolo[4,5-b]pyran] | 1.1 | > 10000 | > 10000 | 1.2 | 
N#CC1=C(N)Nc2ccccc2C1c1ccccc1 (centres unmarked) [Example 71, 2-Amino-3-cyano-4-phenyl-1,4-dihydroquinoline] | 3.1 | 7850 | 3720 | 4.1 | 
COc1ccc2c(c1)OC(N)=C(C#N)C2c1cccnc1 (centres unmarked) [Example 17, 2-Amino-3-cyano-7-methoxy-4-(3-pyridyl)-4H-chromene] | 5.9 | 254 | 147 | 8.2 | 
COc1ccc2c(c1)OC(N)=C(C#N)C2c1cccc(Br)c1 (centres unmarked) [Example 6, 2-Amino-3-cyano-7-methoxy-4-(3-bromophenyl)-4H-chromene] | 6.8 | 54 | 30 | 12.8 | 
COc1cncc(C2C(C#N)=C(N)Oc3cc(OC)ccc32)c1 (centres unmarked) [Example 40, 2-Amino-3-cyano-7-methoxy-4-(5-methoxy-pyridin-3-yl)-4H-chromene] | 7.9 | 27.4 | 16.9 | 8.9 | 
N#CC1=C(N)Oc2cc(N)ccc2C1c1ccccc1 (centres unmarked) [2,7-Diamino-3-cyano-4-phenyl-4H-chromene] |  |  |  |  | EC50 [1, 6]: 5630 nM; Caspase activity (Ratio) T-47D, Table II ([1]; additional compounds, Table II): 6.3; EC50 [2, 7]: 2880 nM; Caspase activity (Ratio) ZR-75-1, Table II [2, 5]: 8.6
N#CC1=C(N)Oc2cc(N)ccc2C1c1cccc(Br)c1 (centres unmarked) [Example 19, 2,7-Diamino-3-cyano-4-(3-bromophenyl)-4H-chromene] | 5.9 | 274 | 206 | 9.2 | 
CCNc1ccc2c(c1)OC(N)=C(C#N)C2c1cc(Br)c(OC)c(OC)c1 (centres unmarked) [Example 2A, 2-Amino-3-cyano-7-ethylamino-4-(3-bromo-4,5-dimethoxyphenyl)-4H-chromene] | 4.0 | 72 | 14 | 4.1 | 
CCNc1ccc2c(c1)OC(N)=C(C#N)C2c1cccc(OC)c1 (centres unmarked) [Example 15, 2-Amino-3-cyano-7-ethylamino-4-(3-methoxyphenyl)-4H-chromene] | 5.9 | 7 | 4 | 6.3 | 
COc1cccc(C2C3=CC=C4N=CC=C4C3OC(N)=C2C#N)c1 (centres unmarked) [Example 46, 2-Amino-3-cyano-4-(3-methoxyphenyl)-4H-indolo[4,5-b]pyran] | 6.4 | 62 | 26 | 7.1 | EC50 [1, 8]: 61.8 nM; EC50 [2, 9]: 26.3 nM
COc1cc(C2C(C#N)=C(N)Oc3cc(N(C)C)ccc32)cc(Br)c1O (centres unmarked) [Example 48, 2-Amino-4-(3-bromo-4-hydroxy-5-methoxyphenyl)-3-cyano-7-dimethylamino-4H-chromene] | 10.5 | 36.8 | 23.8 | 6.1 | 
N#CC1=C(N)Oc2cc(N)ccc2C1c1cccc(Cl)c1 (centres unmarked) [Example 22, 2,7-Diamino-3-cyano-4-(3-chlorophenyl)-4H-chromene] | 5.8 | 4800 | 2480 | 8.0 | 
COc1cc(C2C(C#N)=C(N)Oc3cc(N4CCOCC4)ccc32)cc(Br)c1OC (centres unmarked) [Example 66C, 2-Amino-3-cyano-7-N-morpholine-4-(3-bromo-4,5-dimethoxyphenyl)-4H-chromene] | 10.4 |  |  | 7.4 | EC50 [1, 8]: 166 nM; EC50 [2, 9]: 86.8 nM
CCNc1ccc2c(c1)OC(N)=C(C#N)C2c1cncc(Br)c1 (centres unmarked) [Example 32, 2-Amino-3-cyano-4-(5-bromo-3-pyridyl)-7-ethylamino-4H-chromene] | 7.2 | 17 | 4 | 9.5 | 
COc1cc(C2C(C#N)=C(N)Oc3c2ccc(N)c3O)cc(Br)c1OC (centres unmarked) [Example 74, 2-Amino-3-cyano-7-amino-8-hydroxy-4-(3-bromo-4,5-dimethoxyphenyl)-4H-chromene] | 7.4 | 149 | 99.3 | 8.9 | 

Source: patent US20060035925A1, “SUBSTITUTED 4H-CHROMENES AND ANALOGS AS ACTIVATORS OF CASPASES AND INDUCERS OF APOPTOSIS AND THE USE THEREOF” (Cytovia, Inc., priority 1999, published 2006)
